The values below are quoted from earlier work in US20090148399A1, “Controlled release attractant for gravid female mosquitoes” (priority 2007, published 2009).

The test system of this series is gravid female C. quinquefasciatus. The following applies: gravid female Culex quinquefasciatus.

As to `Cc1c[nH]c2ccccc12` [3-Methyl indole], the oviposition attractancy result is given as “highly effective attractant”.
Take `CCCCCCCCCC[C@H](OC(C)=O)[C@H]1CCCC(=O)O1` [(5R,6S)-6-acetetoxy-5-hexadecanolide]: the oviposition attractancy entry was “attracts other females of the same species to deposit their eggs gregariously”.
